The results in this text go back to publication PMC5988656, “Phase I studies of AZD1208, a proviral integration Moloney virus kinase inhibitor in solid and haematological cancers” (British Journal of Cancer, 2018).

Values joined by “and” are separate entries in the source; they are usually repeats but may differ in a detail not shown here. Equal values may be shown once.

One data set deals with p4E-BP1 S65. Description: PD: phosphorylation of 4E-BP1 at S65 by NanoPro immunoassay, AML study. It counts as in vivo, human. As to the method: For AZD1208 PD evaluations, bone marrow aspirates were collected (pretreatment and Cycle 1, Day 1, 2–6 h following administration of AZD1208) and peripheral blood samples were collected (pretreatment on Cycle 1, Day 1; and on-treatment at Cycle 1, Day 1 at 3, 6 and 24 h post-dose; Cycle 1, Day 14 at pre-dose, 3 and 6 h post-dose). Mononuclear cells were isolated, and protein lysates prepared, for subsequent analysis of phosphorylated BAD at S112 by MesoScale Discovery ELISA and phosphorylation of 4E-BP1 at S65 by NanoPro immunoassay [unpublished data: McEachern et al. 2018, manuscript in preparation]. Samples were considered evaluable when the baseline biomarker levels were above the background signal (as defined by buffer-only negative control samples) and within the linear range of assay. Additionally, only blood samples containing detectable blasts were considered for analysis.

For a further data set, the system named is CYP3A4. Description: CYP3A4 activity assessed by 4-β-hydroxycholesterol levels, solid tumour study. It counts as in vivo, human. The conditions noted are these: for 4-β-hydroxycholesterol Day 15 concentration / 4-β-hydroxycholesterol ratio (Day 15/Day 1): individual subjects. As to the method:
In the solid tumour study, blood samples for 4β-hydroxycholesterol analysis were collected pre-dose at Cycle 0, Day 1; Cycle 1 (Day 8 and 15); and Cycle 2, Day 15.
The activity of CYP3A4 was assessed by analysing 4-β-hydroxycholesterol levels in samples collected from five patients at AZD1208 doses of 700 or 800 mg.

Consider `N[C@@H]1CCCN(c2c(/C=C3\SC(=O)NC3=O)cccc2-c2ccccc2)C1` [AZD1208], for which the “Patients with reductions in p4E-BP1 S65” value in the data set on p4E-BP1 S65 (evaluable bone marrow samples, single dose) was 3/11. For the same molecule, the “Patients with decreases in p4E-BP1 S65” value in the data set on p4E-BP1 S65 (peripheral blood samples) is given as 4/7. Besides, the “Increase in 4-β-hydroxycholesterol levels on Day 15 compared with Day 1” value in the data set on CYP3A4 (five patients, 700 or 800 mg) was ~ 4 fold. Moreover, in the data set with CYP3A4 (five subjects, 700 or 800 mg), the “4-β-hydroxycholesterol Day 15 concentration, Gmean (CV%)” value is 114.1 (29.2) ng ml and the “4-β-hydroxycholesterol ratio (Day 15/Day 1), Gmean (CV%)” value is listed as 4.38 (23.9). For the same molecule, in the data set on CYP3A4 (dose 700 mg), the “4-β-hydroxycholesterol Day 15 concentration” value was 85.5 ng·mL and 91.9 ng·mL and 175 ng·mL; the “4-β-hydroxycholesterol ratio (Day 15/Day 1)” value is 3.41 and 5.93 and 4.90. For the same molecule, in the data set with CYP3A4 (dose 800 mg), the “4-β-hydroxycholesterol Day 15 concentration” value is 128 ng·mL and 110 ng·mL; the “4-β-hydroxycholesterol ratio (Day 15/Day 1)” value was 4.67 and 3.49. The CYP3A4 activity result in the data set on CYP3A4 (multiple dosing, 700 or 800 mg) was “induced”.
